# Measurements published in US10596103B2, “Drug delivery system for delivery of anti-virals” (Merck Sharp & Dohme B.V., priority 2013, dated 2020).
# Test: Solubility of vicriviroc in EVA by partitioning experiments
# Type: physicochemical
# Procedure: The solubility of vicriviroc in EVA was determined by partitioning experiments. A small sample of polymer film (approximately 10 mg) was immersed in a saturated aqueous vicriviroc solution (5 mL PBS buffer pH 7). Once the film was immersed the drug diffused from the saturated solution into the film until an equilibrium was achieved. As a result the drug concentration of the aqueous solution decreased and the drug concentration in the film increased. The decrease of the drug concentration in the aqueous solution was continuously measured with a fiber optic probe (Rainbow Dynamic Dissolution Monitor).
compound,measurement,setting,value
COC[C@@H](c1ccc(C(F)(F)F)cc1)N1CCN(C2(C)CCN(C(=O)c3c(C)ncnc3C)CC2)C[C@@H]1C [vicriviroc],Vicriviroc loading above which supersaturation occurs,in EVA 28,above 1.4 % by weight
same,Solubility of vicriviroc in EVA 28,"polymer film in saturated aqueous vicriviroc solution, PBS buffer pH 7, FIG. 14",1.2-1.4 wt %
